Reference: patent US20050171358A1 (priority 2002, published 2005)

Legend:
[1] = tested on: Pseudoperonospora cubensis; assay: Effect test for cucumber downy mildew (Evaluation Example 4); type: in vivo; conditions: 125 ppm, 200 L/10 a spray on cucumber (3 leaf stage), inoculated next day; diseased area rates of first and second true leaves after 3 days in green house, graded by Table 5
Method: The active ingredient compound was diluted with water containing 0.01% Tween 20 to have a concentration of 125 ppm. […] Next day, a zoosporangium suspension of Pseudoperonospora cubensis which was the causative fungus of cucumber downy mildew was sprayed to inoculate.

Phytophthora infestans = type: in vivo; conditions: 125 ppm, 200 L/10 a spray on tomato (5 leaf stage), inoculated next day; diseased area rates of third to fifth true leaves after 3 days in green house, graded by Table 5
Pyricularia oryzae = type: in vivo; conditions: 200 ppm spray on rice (Koshihikari, 3 leaf stage), inoculated next day; lesion numbers on third leaves after 7 days in green house, graded by Table 5
[2] = tested on: Colletotrichum lagenarium; conditions: 200 ppm spray on cucumber (3 leaf stage), inoculated next day; lesion numbers on first and second leaves after 7 days in green house, graded by Table 5

SMILES	Evaluation (effect for cucumber downy mildew) [1]	Evaluation (effect for tomato late blight) (Phytophthora infestans)	Evaluation (effect for rice blast) (Pyricularia oryzae)	Evaluation (effect for cucumber anthracnose) [2]
O=C(COc1ccccc1)NCc1cc(CCl)no1 [I-65, N-[(3-chloromethyl-5-isoxazolyl)methyl]phenoxyacetamide]	2 (11˜20)	4 (1˜5)		
O=C(NCc1cc(CCl)no1)NC1CCCCC1 [II-105, 3-(3-chloromethyl-5-isoxazolyl)methyl-1-cyclohexylurea]	4 (1˜5)	5 (0)	2 (11˜20)	
O=C(NCc1cc(CCl)no1)NC1CCCC1 [II-107, 3-(3-chloromethyl-5-isoxazolyl)methyl-1-cyclopentylurea]	2 (11˜20)	4 (1˜5)		
O=C(NCc1cc(CBr)no1)NC1CCCCC1 [II-111, 3-(3-bromomethyl-5-isoxazolyl)methyl-1-cyclohexylurea]	3 (6˜10)	5 (0)		
O=C(NCc1cc(CI)no1)NC1CCCCC1 [II-115, 3-(3-iodomethyl-5-isoxazolyl)methyl-1-cyclohexylurea]	1 (21˜41)	3 (6˜10)	3 (6˜10)	2 (11˜20)
Cc1ccc(C(=O)NCc2cc(CCl)no2)cc1 [III-2, N-[(3-chloromethyl-5-isoxazolyl)methyl]-4-methylbenzamide]	5 (0)	5 (0)	4 (1˜5)	4 (1˜5)
COc1ccc(C(=O)NCc2cc(CCl)no2)cc1 [III-3, N-[(3-chloromethyl-5-isoxazolyl)methyl]-4-methoxy benzamide]	4 (1˜5)	2 (11˜20)		
Cc1ccc(-c2cc(CNC(=O)N3CCOCC3)on2)cc1 [III-204, N-{[3-(4-tolyl)-5-isoxazolyl]methyl}-4-morpholinecarboxamide]	4 (1˜5)		2 (11˜20)	2 (11˜20)
Cc1ccc(-c2cc(CNC(=O)C3CCCCC3)on2)cc1 [III-222, N-{[3-(4-tolyl)-5-isoxazolyl]methyl}cyclohexanecarboxamide]	4 (1˜5)		3 (6˜10)	2 (11˜20)
O=C(NCc1cc(CCl)no1)c1ccccc1 [III-226, N-[(3-chloromethyl-5-isoxazolyl)methyl]benzamide]	4 (1˜5)	3 (6˜10)		
O=C(NCc1cc(CCl)no1)c1ccc(Cl)cc1 [III-254, N-[(3-chloromethyl-5-isoxazolyl)methyl]-4-chlorobenzamide]	3 (6˜10)	5 (0)		
O=C(C=Cc1ccccc1)NCc1cc(CCl)no1 [III-266, N-[(3-chloromethyl-5-isoxazolyl)methyl]-β-phenylacrylamide]		1 (21˜41)		
O=C(NCc1cc(CCl)no1)c1ccc2ccccc2c1 [III-267, N-[(3-chloromethyl-5-isoxazolyl)methyl]-2-naphthalenecarboxamide]	5 (0)	5 (0)		
O=C(NCc1cc(CCl)no1)c1cccc2ccccc12 [III-268, N-[(3-chloromethyl-5-isoxazolyl)methyl]-1-naphthalenecarboxamide]		0 (41 or more)		
CCc1ccc(C(=O)NCc2cc(CCl)no2)cc1 [III-269, N-[(3-chloromethyl-5-isoxazolyl)methyl]-4-ethylbenzamide]	5 (0)	5 (0)		
O=C(NCc1cc(CCl)no1)c1ccc(OCCl)cc1 [III-270, N-[(3-chloromethyl-5-isoxazolyl)methyl]-4-chloromethyloxybenzamide]		2 (11˜20)		
O=C(NCc1cc(CCl)no1)c1ccc(Cl)cc1Cl [III-271, N-[(3-chloromethyl-5-isoxazolyl)methyl]-2,4-dichlorobenzamide]		1 (21˜41)		
O=C(NCc1cc(CCl)no1)c1ccc(Cl)c(Cl)c1 [III-272, N-[(3-chloromethyl-5-isoxazolyl)methyl]-3,4-dichlorobenzamide]	3 (6˜10)	5 (0)		
Cc1ccccc1C(=O)NCc1cc(CCl)no1 [III-273, N-[(3-chloromethyl-5-isoxazolyl)methyl]-2-methylbenzamide]		0 (41 or more)		
Cc1cccc(C(=O)NCc2cc(CCl)no2)c1 [III-274, N-[(3-chloromethyl-5-isoxazolyl)methyl]-3-methylbenzamide]	2 (11˜20)	4 (1˜5)		
O=C(NCc1cc(CCl)no1)c1cccc(Cl)c1 [III-277, N-[(3-chloromethyl-5-isoxazolyl)methyl]-3-chlorobenzamide]	2 (11˜20)	4 (1˜5)		
O=C(NCc1cc(CCl)no1)c1ccc([N+](=O)[O-])cc1 [III-278, N-[(3-chloromethyl-5-isoxazolyl)methyl]-4-nitrobenzamide]	2 (11˜20)	4 (1˜5)		
CS(=O)(=O)c1ccc(C(=O)NCc2cc(CCl)no2)c(Cl)c1 [III-279, N-[(3-chloromethyl-5-isoxazolyl)methyl]-2-chloro-4-methanesulfonylbenzamide]	3 (6˜10)	5 (0)		
